Test results published in article PMC4926433, “Isoquercitrin Esters with Mono- or Dicarboxylic Acids: Enzymatic Preparation and Properties” (International Journal of Molecular Sciences, 2016).
Several values for one entry are separate records, joined by “and”; a condition that tells them apart may be missing. Equal entries are not always repeated. Where two headings read alike, the source gives them in different places. Marks after values point to notes of the source that are not given here.

What was measured:
[1] = Folin–Ciocalteau reduction (FCR) assay, reducing capacity; assay type: biochemical; details: gallic acid equivalents, mean ± SE
Method: Folin-Ciocalteu assay, commonly known as the total phenols assay, determines a sample reducing capacity. FCR contains heteropolyphosphotunstate-molybdates, which are reduced in aqueous milieu at pH ≈ 10 to blue species, presumably (PMoW11O40)^4- [29]. […] This is probably related to high hydrophobicity of these derivatives. Reducing capacity was evaluated using Folin-Ciocalteau reagent with minor modifications as described previously.

[2] = DPPH radical scavenging assay; assay type: biochemical; details: methanol, DPPH 20 µM, 30 min; mean ± SE
Method: When reduced, the solution decolorizes in proportion to the strength and concentration of the antiradical compound tested. The results of this test are usually expressed as the concentration of the compound that reduces 50% of the radical (IC50, Table 1). […] However, no clear relationship between the carboxylic chain length and DPPH radical scavenging activity could be established. Antiradical activity was evaluated spectrophotometrically as the ability of the substances to reduce the DPPH radical as described previously with minor modifications.

[3] = system: rat liver microsomal membranes; test: Inhibition of microsomal lipid peroxidation induced by tert-butyl hydroperoxide (TBARS); assay type: biochemical; details: for IC50: male rat liver microsomes, tert-butylhydroperoxide 1 mM, 37 °C, 30 min, TBARS, mean ± SE, read-out: Lpx (IC50; µM)
Excerpt: Lipid peroxidation is a type of oxidative degradation of lipids caused by free radicals in cell membranes, resulting in cell damage. The most notable initiators of this chain reaction in living cells are reactive oxygen species (ROS), such as OH· and HO2·, which combine with a hydrogen atom to make water and a fatty acid radical. We used tert-butyl hydroperoxide, a relatively stable organic peroxide, as initiator of peroxidation of rat liver microsomal membranes. The inhibition of this reaction depends not only on the free radical scavenging capacity, but also on the capacity of these compounds to interact with and penetrate lipid bilayers. Isoquercitrin derivatives differed considerably in their capacity to inhibit the peroxidation of microsomal membranes. […] A similar trend, e.g., improving the activity in medium chain derivatives with subsequent drop for longer chain esters, was reported for anti-proliferative activity of IQ monocarboxylic acid esters on the growth of tumoral Caco2 cells, and also for the inhibition of tyrosinase activity.
Pooled microsomes from male rat livers (M9066, Sigma-Aldrich, Prague, Czech Republic) were washed five times using centrifugation and phosphate-buffered saline (PBS, 13,500 rpm, 5 min, 4 °C) to remove sucrose. In addition, 400 µL of the diluted microsomal suspension (0.625 mg protein/mL in PBS), the compounds tested in 50 µL of dimethyl sulfoxide (DMSO, final concentration 5–2000 µM) and 50 µL of tert-butylhydroperoxide in PBS (final concentration 1 mM) were mixed and incubated at 37 °C for 30 min. Determination of lipid peroxidation products as thiobarbituric acid reactive substances (TBARS) and calculation of the IC50 values were performed as described previously.

[4] = ABTS radical cation scavenging (Antioxidant Assay Kit); assay type: biochemical; details: Trolox equivalents; aqueous buffer pH 5; mean ± SE
Method: Determination of ABTS scavenging activity involves an electron-transfer reaction. […] The capacity to scavenge the radical cation (ABTS^·) was evaluated using the Antioxidant Assay Kit (CS0790, Sigma-Aldrich, Prague, Czech Republic) and expressed as Trolox equivalents (TE) from the Trolox calibration curve.

[5] = Partition coefficient (log P) in octan-1-ol/phosphate buffer pH 7.4; details: for logP: octan-1-ol / 6.6 mM phosphate buffer pH 7.4, pH 7.4; for Partition Coefficient: octan-1-ol/6.6 mM phosphate buffer pH 7.4, 25 °C, mean ± SD, triplicate
Method: The hydrophobicity of the prepared compounds was determined by the measurement of partition coefficient P in a mixture of two immiscible phases—octan-1-ol and 6.6 mM phosphate buffer pH 7.4 to simulate physiological conditions. Before the use, octan-1-ol was stirred with the buffer for 16 h at 25 °C to achieve saturation of both phases, which were then separated.
Then, 150 µL of the stock solutions were mixed with 150 µL of the respective immiscible phase in microcentrifuge tubes (1.5 mL) and stirred (750 rpm) for 2 h at 25 °C in triplicates. Phases were separated and the solute concentration in each phase was determined in 96-well microtitration plates using Sunrise™ spectrophotometer (Schoeller Instruments, Prague, Czech Republic) at 400 nm. Log P was calculated as follows: log Poct/buffer = log([A]octan-1-ol/[A]buffer).

Row | Compound | FCR (GAE) [1] | IC50 [2] [µM] | IC50 [3] | ABTS (TE) [4] | log P ([5]; pH 7.4) | logP [5] | Partition Coefficient [5] | fold more active than IQ in inhibition of microsomal lipid peroxidation ([3]; ratio of Lpx IC50 values relative to IQ (1)) [×] | FCR (GAE) ([1]; listed as quercetin) | IC50 ([3]; listed as quercetin) [µM]
1 | ((2R,3S,4R,5R,6S)-3-Acetoxy-6-((2-(3,4-dihydroxyphenyl)-5,7-dihydroxy-4-oxo-4H-chromen-3-yl)oxy)-4,5-dihydroxytetrahydro-2H-pyran-2-yl)methyl acetate [Compound 3] | 1.67 ± 0.11 ^b GAE | 2.15 ± 0.04 | 433 ± 19 µM | 1.56 ± 0.04 TE | 1.59 | – | – | – | – | –
2 | CCCCCC(=O)OC[C@H]1O[C@@H](Oc2c(-c3ccc(O)c(O)c3)oc3cc(O)cc(O)c3c2=O)[C@H](O)[C@@H](O)[C@@H]1O [Compound 5, ((2R,3S,4S,5R,6S)-6-((2-(3,4-Dihydroxyphenyl)-5,7-dihydroxy-4-oxo-4H-chromen-3-yl)oxy)-3,4,5-trihydroxytetrahydro-2H-pyran-2-yl)methyl hexanoate] | 1.48 ± 0.05 ^b GAE | 3.07 ± 0.1 | 20 µM and 19.7 µM | 2.11 ± 0.09 ^i TE | – | 2.1 | 126.43 ± 0.01 | – | – | –
3 | CC(=O)OC[C@H]1O[C@@H](Oc2c(-c3ccc(O)c(O)c3)oc3cc(O)cc(O)c3c2=O)[C@H](O)[C@@H](O)[C@@H]1O [Compound 2, ((2R,3S,4S,5R,6S)-6-((2-(3,4-Dihydroxyphenyl)-5,7-dihydroxy-4-oxo-4H-chromen-3-yl)oxy)-3,4,5-trihydroxytetrahydro-2H-pyran-2-yl)methyl acetate] | 1.63 ± 0.07 ^b GAE | 2.51 ± 0.1 | 42 ± 2.1 µM | 2.04 ± 0.07 ^i TE | – | 1.14 | 13.76 ± 0.01 | 23 | – | –
4 | CCCCCCCC(=O)OC[C@H]1O[C@@H](Oc2c(-c3ccc(O)c(O)c3)oc3cc(O)cc(O)c3c2=O)[C@H](O)[C@@H](O)[C@@H]1O [Compound 6, ((2R,3S,4S,5R,6S)-6-((2-(3,4-Dihydroxyphenyl)-5,7-dihydroxy-4-oxo-4H-chromen-3-yl)oxy)-3,4,5-trihydroxytetrahydro-2H-pyran-2-yl)methyl octanoate] | 1.47 ± 0.10 ^b GAE | 2.23 ± 0.08 | 186 ± 3 µM | 1.28 ± 0.07 TE | – | – | – | – | – | –
5 | quercetin [reference compound] | 2.80 ± 0.16 GAE | 3.78 ± 0.15 | 29.8 ± 0.6 µM | 2.14 ± 0.10 ^i TE | – | – | – | – | 2.80 | 30
6 | C[C@@H]1O[C@@H](OC[C@H]2O[C@@H](Oc3c(-c4ccc(O)c(O)c4)oc4cc(O)cc(O)c4c3=O)[C@H](O)[C@@H](O)[C@@H]2O)[C@H](O)[C@H](O)[C@H]1O [Rutin, quercetin-3-O-[α-L-rhamnopyranosyl-(1→6)-β-D-glucopyranose], reference compound] | 2.19 ± 0.10 GAE | 3.66 ± 0.39 | 202 ± 8 µM | 1.79 ± 0.09 TE | – | – | 0.41 ± 0.01 | – | – | –
7 | O=C(O)CCCCCCCCCCC(=O)OC[C@H]1O[C@@H](Oc2c(-c3ccc(O)c(O)c3)oc3cc(O)cc(O)c3c2=O)[C@H](O)[C@@H](O)[C@@H]1O [Compound 11, 12-(((2R,3S,4S,5R,6S)-6-((2-(3,4-Dihydroxyphenyl)-5,7-dihydroxy-4-oxo-4H-chromen-3-yl)oxy)-3,4,5-trihydroxytetrahydro-2H-pyran-2-yl)methoxy)-12-oxododecanoic acid] | 1.58 GAE and 1.58 ± 0.05 ^b GAE | 2.97 ± 0.22 | 33 µM and 32.5 µM | 2.16 ± 0.08 ^i TE | – | 0.48 | 3.00 ± 0.03 | – | – | –
8 | CCCC(=O)OC[C@H]1O[C@@H](Oc2c(-c3ccc(O)c(O)c3)oc3cc(O)cc(O)c3c2=O)[C@H](O)[C@@H](O)[C@@H]1O [Compound 4, ((2R,3S,4S,5R,6S)-6-((2-(3,4-Dihydroxyphenyl)-5,7-dihydroxy-4-oxo-4H-chromen-3-yl)oxy)-3,4,5-trihydroxytetrahydro-2H-pyran-2-yl)methyl butyrate] | 1.72 ± 0.03 ^a GAE | 2.51 ± 0.17 | 24.1 ± 0.8 µM | 2.16 ± 0.08 ^i TE | – | 1.96 | 90.64 ± 0.03 | – | – | –
9 | O=C(O)CCCC(=O)OC[C@H]1O[C@@H](Oc2c(-c3ccc(O)c(O)c3)oc3cc(O)cc(O)c3c2=O)[C@H](O)[C@@H](O)[C@@H]1O [Compound 9, 6-(((2R,3S,4S,5R,6S)-6-((2-(3,4-Dihydroxyphenyl)-5,7-dihydroxy-4-oxo-4H-chromen-3-yl)oxy)-3,4,5-trihydroxytetrahydro-2H-pyran-2-yl)methoxy)-6-oxopentanoic acid] | 1.84 ± 0.05 ^a GAE | 1.77 ± 0.06 | 1340 ± 54 µM | 2.13 ± 0.08 ^i TE | – | -1.15 | 0.07 ± 0.01 | – | – | –
10 | O=c1c(O)c(-c2ccc(O)c(O)c2)oc2cc(O)cc(O)c12 [Quercetin, quercetin, reference compound] | – | – | – | – | – | – | 86.27 ± 0.02 | – | – | –
11 | CCCCCCCCCCCCCCCC(=O)OC[C@H]1O[C@@H](Oc2c(-c3ccc(O)c(O)c3)oc3cc(O)cc(O)c3c2=O)[C@H](O)[C@@H](O)[C@@H]1O [Compound 8, ((2R,3S,4S,5R,6S)-6-((2-(3,4-Dihydroxyphenyl)-5,7-dihydroxy-4-oxo-4H-chromen-3-yl)oxy)-3,4,5-trihydroxytetrahydro-2H-pyran-2-yl)methyl palmitate] | 0.76 GAE and 0.76 ± 0.03 ^c GAE | 2.23 ± 0.03 | 1090 ± 36 µM | 1.0 TE and 1.00 ± 0.06 ^j TE | – | – | – | – | – | –
12 | CCCCCCCCCCCC(=O)OC[C@H]1O[C@@H](Oc2c(-c3ccc(O)c(O)c3)oc3cc(O)cc(O)c3c2=O)[C@H](O)[C@@H](O)[C@@H]1O [Compound 7, ((2R,3S,4S,5R,6S)-6-((2-(3,4-Dihydroxyphenyl)-5,7-dihydroxy-4-oxo-4H-chromen-3-yl)oxy)-3,4,5-trihydroxytetrahydro-2H-pyran-2-yl)methyl dodecanoate] | 0.63 GAE and 0.63 ± 0.07 ^c GAE | 1.58 ± 0.05 | 432 ± 24 µM | 1.06 ± 0.09 ^j TE | – | – | – | – | – | –
13 | O=C(O)CCCCC(=O)OC[C@H]1O[C@@H](Oc2c(-c3ccc(O)c(O)c3)oc3cc(O)cc(O)c3c2=O)[C@H](O)[C@@H](O)[C@@H]1O [Compound 10, 6-(((2R,3S,4S,5R,6S)-6-((2-(3,4-Dihydroxyphenyl)-5,7-dihydroxy-4-oxo-4H-chromen-3-yl)oxy)-3,4,5-trihydroxytetrahydro-2H-pyran-2-yl)methoxy)-6-oxohexanoic acid] | 1.46 ± 0.14 ^b GAE | 2.19 ± 0.12 | 250 ± 19 µM | 2.12 ± 0.10 ^i TE | – | -1 | 0.10 ± 0.01 | – | – | –
